In US9409952B2, “Peptide-compound cyclization method” (Chugai Seiyaku Kabushiki Kaisha, priority 2011, dated 2016):
Where two headings read alike, the source gives them in different places. Starred links: 1 amine or outer side, 2 acyl side, 3 side chain; linkers in the order of their positions; H or OH if unused. Positions of bridges follow the written chain, without caps; N, C: chain ends. Non-standard residues stand in square brackets, D forms with d. Residues, ends and D or L forms follow the SMILES beside them. *: point of attachment. NMeF = CN[C@@H](Cc1ccccc1)C(=O)O; NMeGABA = CN(CCCC(=O)[*:2])[*:1]; NMeI = CC[C@H](C)[C@H](NC)C(=O)O; NMeβAla = CN(CCC(=O)[*:2])[*:1]; NMeL = CN[C@@H](CC(C)C)C(=O)O; NMeV = CN[C@H](C(=O)O)C(C)C; NMeA = CN[C@@H](C)C(=O)O; Piperidide = C1CCN(*)CC1; dNMeA = CN[C@H](C)C(=O)O; Sar = CNCC(=O)O; tBu = CC(C)(C)*

Columns and labels:
[1] = PAMPA (parallel artificial membrane permeability assay); format: in vitro ADME; conditions: PAMPA
Outline: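 Artificial membrane was 10% (w/v) egg lecithin plus 0.5% (w/v) cholesterol in dodecane on a PVDF filter. A 10 mM DMSO stock was added at 0.5% (v/v) to donor buffer (50 mM MOPSO, pH 6.5, 5.0% glycocholic acid). After 18 h at 37 °C, LC/MS or LC/UV gave donor and acceptor levels for Pe.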

[2] = Metabolic stability in human hepatic microsome; format: in vitro ADME; conditions: microsomes
[3] = membrane permeation rate (Pe), 50 mM MOPSO buffer pH 6.5 with 5.0% glycocholic acid, 37° C., 18 hours, read-out: iPAMPA Pe
[4] = pH 7.4, human hepatic microsome, NADPH(+), read-out: CL NADPH(+)

SMILES | Papp at 18 hours, 50 µM [1, 3] [×10⁻⁶ cm/s] | microsomal CLint at 1 uM [2, 4] [µL/min/mg] | Papp at 18 hours, 50 µM ([1]; pH 6.5) [×10⁻⁶ cm/s] | microsomal CLint at 1 uM ([2]; human, pH 7.4, CL NADPH(+)) [µL/min/mg]
CC(C)C[C@@H]1NC(=O)[C@H](CC(C)C)N(C)C(=O)[C@H](Cc2ccccc2)N(C)C(=O)CNC(=O)[C@H]([C@@H](C)O)NC(=O)[C@H](CC(C)C)N(C)C(=O)[C@H](Cc2ccccc2)NC(=O)[C@@H](C)N(C)C(=O)C[C@@H](C(=O)N2CCCCC2)NC(=O)[C@H](COC(C)(C)C)NC1=O [DP-120] ([dNMeA]F[NMeL]TG[NMeF][NMeL]LS(tBu)D-Piperidide; lactam N-10) | 50 | 84 | – | –
CC[C@H](C)[C@@H]1NC(=O)[C@H](CC(C)C)N(C)C(=O)[C@H](C)NC(=O)CCCN(C)C(=O)C[C@@H](C(=O)N2CCCCC2)NC(=O)[C@H]([C@@H](C)O)NC(=O)[C@H](Cc2ccccc2)NC(=O)[C@H](C(C)C)N(C)C(=O)[C@H](CC(C)C)N(C)C(=O)[C@H](Cc2ccccc2)N(C)C1=O [DP-121] ([NMeGABA]A[NMeL]I[NMeF][NMeL][NMeV]FTD-Piperidide; lactam N-10) | – | – | 41 | 46
CC(C)C[C@H]1C(=O)N(C)[C@@H](Cc2ccccc2)C(=O)N[C@@H]([C@@H](C)O)C(=O)N(C)[C@@H](C)C(=O)N(C)[C@@H](CC(C)C)C(=O)N(C)[C@@H](CC(C)C)C(=O)N[C@H](C(=O)N2CCCCC2)CC(=O)N(C)CCCC(=O)N[C@@H](COC(C)(C)C)C(=O)N(C)CC(=O)N1C [DP-122] ([NMeGABA]S(tBu)[Sar][NMeL][NMeF]T[NMeA][NMeL][NMeL]D-Piperidide; lactam N-10) | – | – | 32 | 169
CC(C)C[C@H]1C(=O)N(C)[C@@H](CC(C)C)C(=O)N[C@H](C(=O)N(C)[C@@H](Cc2ccccc2)C(=O)N[C@@H](C)C(=O)N2CCCCC2)CC(=O)N[C@H](C(C)C)C(=O)N(C)[C@@H](C)C(=O)N(C)[C@@H](Cc2ccccc2)C(=O)N(C)[C@@H](CC(C)C)C(=O)N[C@@H]([C@@H](C)O)C(=O)N(C)CC(=O)N[C@@H](C(C)C)C(=O)N1C [DP-123] ([dV][NMeA][NMeF][NMeL]T[Sar]V[NMeL][NMeL]D[NMeF]A-Piperidide; lactam N-10) | 58 | 21 | – | –
CC[C@H](C)[C@@H]1NC(=O)[C@@H](C)N(C)C(=O)C[C@@H](C(=O)N(C)[C@@H](Cc2ccccc2)C(=O)N[C@@H](C)C(=O)N2CCCCC2)NC(=O)[C@H](Cc2ccccc2)N(C)C(=O)[C@H](C)NC(=O)[C@H](CC(C)C)N(C)C(=O)[C@H](C)N(C)C(=O)[C@H]([C@@H](C)O)NC(=O)[C@H](C(C)C)N(C)C(=O)[C@H](C)N(C)C1=O [DP-124] ([dNMeA]I[NMeA][NMeV]T[NMeA][NMeL]A[NMeF]D[NMeF]A-Piperidide; lactam N-10) | – | – | 20 | 27
CC(C)C[C@@H]1NC(=O)[C@H](Cc2ccccc2)N(C)C(=O)[C@H](CC(C)C)N(C)C(=O)CCN(C)C(=O)C[C@@H](C(=O)N2CCCCC2)NC(=O)[C@H](CC(C)C)N(C)C(=O)[C@H](Cc2ccccc2)N(C)C(=O)[C@H]([C@@H](C)O)NC(=O)[C@H](Cc2ccccc2)N(C)C1=O [DP-126] ([NMeβAla][NMeL][NMeF]L[NMeF]T[NMeF][NMeL]D-Piperidide; lactam N-9) | 54 | 239 | – | –
CC(C)C[C@@H]1NC(=O)[C@@H](C)N(C)C(=O)C[C@@H](C(=O)N2CCCCC2)NC(=O)[C@H](CC(C)C)N(C)C(=O)[C@H](Cc2ccccc2)N(C)C(=O)[C@H](CC(C)C)NC(=O)[C@H](Cc2ccccc2)N(C)C(=O)[C@H](C)N(C)C(=O)[C@H]([C@@H](C)O)NC1=O [DP-127] ([dNMeA]LT[NMeA][NMeF]L[NMeF][NMeL]D-Piperidide; lactam N-9) | 47 | 194 | – | –
CC(C)C[C@H]1C(=O)N[C@@H]([C@@H](C)O)C(=O)N(C)[C@@H](C)C(=O)N(C)[C@@H](CC(C)C)C(=O)N[C@H](C(=O)N2CCCCC2)CC(=O)N(C)CCCC(=O)N[C@@H](C)C(=O)N(C)[C@@H](Cc2ccccc2)C(=O)N[C@@H](Cc2ccccc2)C(=O)N1C [DP-128] ([NMeGABA]A[NMeF]F[NMeL]T[NMeA][NMeL]D-Piperidide; lactam N-9) | 23 | 276 | – | –
CC(C)C[C@H]1C(=O)N(C)[C@@H](Cc2ccccc2)C(=O)NCC(=O)N[C@H](C(=O)N2CCCCC2)CC(=O)N(C)CCCC(=O)N[C@@H]([C@@H](C)O)C(=O)N(C)[C@@H](C)C(=O)N(C)[C@@H](Cc2ccccc2)C(=O)N[C@@H](COC(C)(C)C)C(=O)N1C [DP-129] ([NMeGABA]T[NMeA][NMeF]S(tBu)[NMeL][NMeF]GD-Piperidide; lactam N-9) | 17 | 120 | – | –
CC(C)C[C@H]1C(=O)N[C@@H]([C@@H](C)O)C(=O)N(C)[C@@H](C)C(=O)N(C)[C@@H](CC(C)C)C(=O)N(C)[C@@H](Cc2ccccc2)C(=O)N[C@@H](COC(C)(C)C)C(=O)N[C@H](C(=O)N2CCCCC2)CC(=O)N(C)CCCC(=O)N(C)[C@@H](C)C(=O)N1C [DP-130] ([NMeGABA][NMeA][NMeL]T[NMeA][NMeL][NMeF]S(tBu)D-Piperidide; lactam N-9) | 21 | 76 | – | –
CC[C@H](C)[C@@H]1NC(=O)[C@H](CC(C)C)N(C)C(=O)[C@H](Cc2ccccc2)N(C)C(=O)[C@H](CC(C)C)NC(=O)[C@@H](C)NC(=O)C[C@@H](C(=O)N2CCCCC2)NC(=O)[C@H](C)N(C)C(=O)[C@H](C)N(C)C(=O)CN(C)C(=O)[C@H]([C@@H](C)O)NC(=O)[C@H](Cc2ccccc2)N(C)C(=O)[C@H](C(C)C)N(C)C1=O [DP-131] ([dA]L[NMeF][NMeL]I[NMeV][NMeF]T[Sar][NMeA][NMeA]D-Piperidide; lactam N-12) | 61 | 48 | – | –
CC[C@H](C)[C@@H]1NC(=O)[C@@H](C(C)C)NC(=O)C[C@@H](C(=O)N2CCCCC2)NC(=O)[C@H](C)N(C)C(=O)[C@H](CC(C)C)N(C)C(=O)CN(C)C(=O)[C@H]([C@@H](C)O)NC(=O)[C@H](Cc2ccccc2)N(C)C(=O)[C@H](CC(C)C)N(C)C(=O)[C@H](C)NC(=O)[C@H](C(C)C)N(C)C(=O)[C@H](Cc2ccccc2)N(C)C1=O [DP-132] ([dV]I[NMeF][NMeV]A[NMeL][NMeF]T[Sar][NMeL][NMeA]D-Piperidide; lactam N-12) | 39 | 37 | – | –
CC(C)C[C@@H]1NC(=O)[C@H](C)N(C)C(=O)C[C@@H](C(=O)N2CCCCC2)NC(=O)[C@H](Cc2ccccc2)N(C)C(=O)[C@H](CC(C)C)N(C)C(=O)CN(C)C(=O)[C@H]([C@@H](C)O)NC(=O)[C@H](C)N(C)C(=O)[C@H](C(C)C)N(C)C(=O)[C@H](C)NC(=O)[C@H](CC(C)C)N(C)C(=O)[C@H](Cc2ccccc2)N(C)C1=O [DP-133] ([NMeA]L[NMeF][NMeL]A[NMeV][NMeA]T[Sar][NMeL][NMeF]D-Piperidide; lactam N-12) | 30 | 51 | – | –
CC[C@H](C)[C@@H]1NC(=O)[C@H](Cc2ccccc2)NC(=O)[C@H](Cc2ccccc2)N(C)C(=O)CCN(C)C(=O)C[C@@H](C(=O)N2CCCCC2)NC(=O)[C@H](C)NC(=O)[C@H](CC(C)C)N(C)C(=O)[C@H](CC(C)C)N(C)C(=O)CN(C)C(=O)[C@H]([C@@H](C)O)NC(=O)[C@H](C(C)C)N(C)C(=O)[C@@H]2CCCN2C1=O [DP-134] ([NMeβAla][NMeF]FIP[NMeV]T[Sar][NMeL][NMeL]AD-Piperidide; lactam N-12) | 13 | 18 | – | –
CC[C@H](C)[C@H]1C(=O)N[C@H](C(=O)N2CCCCC2)CC(=O)N[C@H](C)C(=O)N[C@@H](Cc2ccccc2)C(=O)N(C)[C@@H](C)C(=O)N(C)[C@@H](C(C)C)C(=O)N[C@@H]([C@@H](C)O)C(=O)N(C)CC(=O)N(C)[C@@H](CC(C)C)C(=O)N[C@@H](C)C(=O)N1C [DP-135] ([dA]F[NMeA][NMeV]T[Sar][NMeL]A[NMeI]D-Piperidide; lactam N-10) | 5.2 | 15 | – | –
CC[C@H](C)[C@@H]1NC(=O)[C@H](CC(C)C)N(C)C(=O)[C@H](C)N(C)C(=O)[C@@H](C)NC(=O)C[C@@H](C(=O)N2CCCCC2)NC(=O)[C@H](CC(C)C)N(C)C(=O)[C@H](C)N(C)C(=O)[C@H]([C@@H](C)O)NC(=O)[C@H](Cc2ccccc2)N(C)C(=O)[C@H](Cc2ccccc2)N(C)C1=O [DP-136] ([dA][NMeA][NMeL]I[NMeF][NMeF]T[NMeA][NMeL]D-Piperidide; lactam N-10) | 35 | 147 | – | –
CC[C@H](C)[C@@H]1NC(=O)[C@H](Cc2ccccc2)NC(=O)[C@H](C(C)C)N(C)C(=O)CN(C)C(=O)C[C@@H](C(=O)N2CCCCC2)NC(=O)[C@H]([C@@H](C)O)NC(=O)[C@H](CC(C)C)N(C)C(=O)[C@H](Cc2ccccc2)NC(=O)[C@H](CC(C)C)N(C)C(=O)CNC(=O)[C@H](CC(C)C)NC(=O)[C@H](C)N(C)C1=O [DP-137] ([Sar][NMeV]FI[NMeA]LG[NMeL]F[NMeL]TD-Piperidide; lactam N-12) | 32 | 86 | – | –
CC[C@H](C)[C@H]1C(=O)N[C@@H](COC(C)(C)C)C(=O)N[C@H](C(=O)N2CCCCC2)CC(=O)N(C)[C@@H](C)C(=O)N(C)[C@@H](Cc2ccccc2)C(=O)N(C)CC(=O)N(C)[C@@H](CC(C)C)C(=O)N[C@@H]([C@@H](C)O)C(=O)N(C)[C@@H](C)C(=O)N(C)[C@@H](CC(C)C)C(=O)N1C [DP-138] ([NMeA][NMeF][Sar][NMeL]T[NMeA][NMeL][NMeI]S(tBu)D-Piperidide; lactam N-10) | 31 | 48 | – | –
